Drawing on US20250163066A1, “PROTACs of MALT1” (TEGID THERAPEUTICS, INC., priority 2022, published 2025), this text covers EC50 for 15 compounds.

The target in this test is MALT1 (Homo sapiens (Human), UniProt Q9UDY8). In words: MALT1 enzymatic activity inhibition (fluorescence, Ac-LRSR-AMC substrate). It is filed as biochemical. Conditions: recombinant MALT1 1.5 ng/μl, Ac-LRSR-AMC 1 μM. An outline of the steps: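 Recombinant human MALT1 (1.5 ng/μl final) preincubated 10 min at rt with compounds in 50 mM HEPES pH 7.2-7.4, 100 mM NaCl, 900 mM sodium citrate, 10 mM DTT; 1 μM Ac-LRSR-AMC then added. AMC fluorescence read at start and after 30 min 37 °C plus 30 min rt; difference gives signal, % inhibition fitted to IC50.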
MALT1, sequence (Q9UDY8 whole entry): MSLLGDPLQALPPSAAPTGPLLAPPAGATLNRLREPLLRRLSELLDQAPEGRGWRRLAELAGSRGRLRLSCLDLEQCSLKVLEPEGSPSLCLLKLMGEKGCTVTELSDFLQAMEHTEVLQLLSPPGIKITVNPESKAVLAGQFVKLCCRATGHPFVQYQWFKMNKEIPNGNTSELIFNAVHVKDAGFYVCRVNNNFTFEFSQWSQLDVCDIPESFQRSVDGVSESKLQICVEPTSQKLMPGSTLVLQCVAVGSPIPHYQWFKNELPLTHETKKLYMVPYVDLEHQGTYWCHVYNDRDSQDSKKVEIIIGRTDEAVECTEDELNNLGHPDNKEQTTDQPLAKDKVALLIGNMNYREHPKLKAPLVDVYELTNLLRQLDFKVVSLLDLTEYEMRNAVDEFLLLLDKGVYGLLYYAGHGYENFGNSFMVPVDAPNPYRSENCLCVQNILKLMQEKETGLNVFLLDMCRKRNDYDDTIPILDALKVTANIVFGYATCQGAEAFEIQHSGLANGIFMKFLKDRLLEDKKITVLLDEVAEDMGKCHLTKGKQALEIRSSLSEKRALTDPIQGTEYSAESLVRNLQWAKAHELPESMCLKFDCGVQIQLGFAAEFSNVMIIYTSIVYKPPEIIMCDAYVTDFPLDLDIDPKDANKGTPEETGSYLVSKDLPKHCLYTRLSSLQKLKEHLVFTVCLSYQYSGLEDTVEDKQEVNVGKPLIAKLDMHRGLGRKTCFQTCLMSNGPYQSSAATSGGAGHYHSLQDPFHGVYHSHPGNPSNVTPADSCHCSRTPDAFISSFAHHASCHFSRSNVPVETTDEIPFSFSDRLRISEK
The EC50 is the concentration needed to bring the measured effect to its halfway point. As to `O=C1CCC(N2Cc3cc(N4CCN(C(=O)CCCc5nc(-c6ncc(NC(=O)Nc7cnc8ccnn8c7C7CCCC7)cc6F)no5)CC4)ccc3C2=O)C(=O)N1` (stereo not drawn) [Compound 77, 1-(7-cyclopentylpyrazolo[1,5-a]pyrimidin-6-yl)-3-[6-[5-[4-[4-[2-(2,6-dioxo-3-piperidyl)-1-oxo-isoindolin-5-yl]piperazin-1-yl]-4-oxo-butyl]-1,2,4-oxadiazol-3-yl]-5-fluoro-3-pyridyl]urea], the EC50 was at most 0.2 µM. With `O=C1CCC(N2Cc3cc(NC(=O)CCCc4nc(-c5ncc(NC(=O)Nc6cnc7ccnn7c6C6CCCC6)cc5Cl)no4)ccc3C2=O)C(=O)N1` (stereo not drawn) [Compound 80, 4-[3-[3-chloro-5-[(7-cyclopentylpyrazolo[1,5-a]pyrimidin-6-yl)carbamoylamino]-2-pyridyl]-1,2,4-oxadiazol-5-yl]-N-[2-(2,6-dioxo-3-piperidyl)-1-oxo-isoindolin-5-yl]butanamide], the EC50 was at most 0.2 µM. Take `O=C1CCC(N2Cc3cc(N4CCN(C(=O)CCCCc5nc(-c6ncc(NC(=O)Nc7cnc8ccnn8c7C7CCCC7)cc6F)no5)CC4)ccc3C2=O)C(=O)N1` (stereo not drawn) [Compound 81, 1-(7-cyclopentylpyrazolo[1,5-a]pyrimidin-6-yl)-3-[6-[5-[5-[4-[2-(2,6-dioxo-3-piperidyl)-1-oxo-isoindolin-5-yl]piperazin-1-yl]-5-oxo-pentyl]-1,2,4-oxadiazol-3-yl]-5-fluoro-3-pyridyl]urea]: the EC50 fell in the range of 0.2 to 0.5 µM. The figure for `Cc1cc2ncc(NC(=O)Nc3cnc(-c4noc(CCCCCCN5CCN(c6ccc7c(c6)CN(C6CCC(=O)NC6=O)C7=O)CC5)n4)c(C)c3)c(C3CCCC3)n2n1` (stereo not drawn) [Compound 83, 1-(7-cyclopentyl-2-methyl-pyrazolo[1,5-a]pyrimidin-6-yl)-3-[6-[5-[6-[4-[2-(2,6-dioxo-3-piperidyl)-1-oxo-isoindolin-5-yl]piperazin-1-yl]hexyl]-1,2,4-oxadiazol-3-yl]-5-methyl-3-pyridyl]urea] is at most 0.2 µM; for `Cc1cc2ncc(NC(=O)Nc3cnc(-c4noc(CCCCCN5CCN(c6ccc7c(c6)CN(C6CCC(=O)NC6=O)C7=O)CC5)n4)c(C)c3)c(C3CCCO3)n2n1` (stereo not drawn) [Compound 85, 1-[6-[5-[5-[4-[2-(2,6-dioxo-3-piperidyl)-1-oxo-isoindolin-5-yl]piperazin-1-yl]pentyl]-1,2,4-oxadiazol-3-yl]-5-methyl-3-pyridyl]-3-(2-methyl-7-tetrahydrofuran-2-yl-pyrazolo[1,5-a]pyrimidin-6-yl)urea] it is at most 0.2 µM. As to `Cc1cc(-c2noc(CCCCC(=O)N3CCN(c4ccc5c(c4)CN(C4CCC(=O)NC4=O)C5=O)CC3)n2)ncc1NC(=O)Nc1cnc2ccnn2c1C1CCCC1` (stereo not drawn) [Compound 94, 1-(7-cyclopentylpyrazolo[1,5-a]pyrimidin-6-yl)-3-[6-[5-[5-[4-[2-(2,6-dioxo-3-piperidyl)-1-oxo-isoindolin-5-yl]piperazin-1-yl]-5-oxo-pentyl]-1,2,4-oxadiazol-3-yl]-4-methyl-3-pyridyl]urea], the EC50 is above 5 µM. The figure for `O=C1CCC(N2Cc3cc(N4CCN(CCCCCCc5nc(-c6ncc(NC(=O)Nc7cnc8ccnn8c7C7CCCC7)cc6F)no5)CC4)ccc3C2=O)C(=O)N1` (stereo not drawn) [Compound 95, 1-(7-cyclopentylpyrazolo[1,5-a]pyrimidin-6-yl)-3-[6-[5-[6-[4-[2-(2,6-dioxo-3-piperidyl)-1-oxo-isoindolin-5-yl]piperazin-1-yl]hexyl]-1,2,4-oxadiazol-3-yl]-5-fluoro-3-pyridyl]urea] is at most 0.2 µM; for `O=C1CCC(N2Cc3cc(N4CCN(CCCCCc5nc(-c6ncc(NC(=O)Nc7cnc8ccnn8c7C7CCCC7)cc6F)no5)CC4)ccc3C2=O)C(=O)N1` (stereo not drawn) [Compound 97, 1-(7-cyclopentylpyrazolo[1,5-a]pyrimidin-6-yl)-3-[6-[5-[5-[4-[2-(2,6-dioxo-3-piperidyl)-1-oxo-isoindolin-5-yl]piperazin-1-yl]pentyl]-1,2,4-oxadiazol-3-yl]-5-fluoro-3-pyridyl]urea] it is at most 0.2 µM; for `O=C1CCC(N2Cc3cc(N4CCN(C(=O)CCCCc5nc(-c6ncc(NC(=O)Nc7cnc8ccnn8c7C7CCCCC7)cc6Cl)no5)CC4)ccc3C2=O)C(=O)N1` (stereo not drawn) [Compound 98, 1-[5-chloro-6-[5-[5-[4-[2-(2,6-dioxo-3-piperidyl)-1-oxo-isoindolin-5-yl]piperazin-1-yl]-5-oxo-pentyl]-1,2,4-oxadiazol-3-yl]-3-pyridyl]-3-(7-cyclohexylpyrazolo[1,5-a]pyrimidin-6-yl)urea] it is at most 0.2 µM. As for `O=C1CCC(N2Cc3cc(N4CCN(CCCCCc5nc(-c6ncc(NC(=O)Nc7cnc8ccnn8c7C7CCCCC7)cc6Cl)no5)CC4)ccc3C2=O)C(=O)N1` (stereo not drawn) [Compound 99, 1-[5-chloro-6-[5-[5-[4-[2-(2,6-dioxo-3-piperidyl)-1-oxo-isoindolin-5-yl]piperazin-1-yl]pentyl]-1,2,4-oxadiazol-3-yl]-3-pyridyl]-3-(7-cyclohexylpyrazolo[1,5-a]pyrimidin-6-yl)urea], the EC50 is at most 0.2 µM. The figure for `Cc1cc(NC(=O)Nc2cnc3ccnn3c2C2CCCC2)cnc1-c1noc(CCCCC(=O)Nc2cccc(C3CCC(=O)NC3=O)c2)n1` (stereo not drawn) [Compound 100, 5-[3-[5-[(7-cyclopentylpyrazolo[1,5-a]pyrimidin-6-yl)carbamoylamino]-3-methyl-2-pyridyl]-1,2,4-oxadiazol-5-yl]-N-[3-(2,6-dioxo-3-piperidyl)phenyl]pentanamide] is 0.2 to 0.5 µM; for `Cc1cc(NC(=O)Nc2cnc3ccnn3c2C2CCCC2)cnc1-c1noc(CCCCC(=O)Nc2ccc(C3CCC(=O)NC3=O)cc2)n1` (stereo not drawn) [Compound 101, 5-[3-[5-[(7-cyclopentylpyrazolo[1,5-a]pyrimidin-6-yl)carbamoylamino]-3-methyl-2-pyridyl]-1,2,4-oxadiazol-5-yl]-N-[4-(2,6-dioxo-3-piperidyl)phenyl]pentanamide] it is 0.2 to 0.5 µM; for `Cc1cc(NC(=O)Nc2cnc3ccnn3c2C2CCCC2)cnc1-c1noc(CCCCCC(=O)N2CCN(c3ccc4c(c3)CN(C3CCC(=O)N(COC(=O)C(C)(C)C)C3=O)C4=O)CC2)n1` (stereo not drawn) [Compound 102, [3-[5-[4-[6-[3-[5-[(7-cyclopentylpyrazolo[1,5-a]pyrimidin-6-yl)carbamoylamino]-3-methyl-2-pyridyl]-1,2,4-oxadiazol-5-yl]hexanoyl]piperazin-1-yl]-1-oxo-isoindolin-2-yl]-2,6-dioxo-1-piperidyl]methyl 2,2-dimethylpropanoate] it is at most 0.2 µM. The figure for `CCCCOP(=O)(OCCCC)OCN1C(=O)CCC(N2Cc3cc(N4CCN(C(=O)CCCCCc5nc(-c6ncc(NC(=O)Nc7cnc8ccnn8c7C7CCCC7)cc6Cl)no5)CC4)ccc3C2=O)C1=O` (stereo not drawn) [Compound 103, dibutyl [3-[5-[4-[6-[3-[3-chloro-5-[(7-cyclopentylpyrazolo[1,5-a]pyrimidin-6-yl)carbamoylamino]-2-pyridyl]-1,2,4-oxadiazol-5-yl]hexanoyl]piperazin-1-yl]-1-oxo-isoindolin-2-yl]-2,6-dioxo-1-piperidyl]methyl phosphate] is above 5 µM; for `O=C1CCC(N2Cc3cc(N4CCN(CCCCc5nc(-c6ncc(NC(=O)Nc7cnc8ccnn8c7C7CCCC7)cc6F)no5)CC4)ccc3C2=O)C(=O)N1` (stereo not drawn) [Compound 105, 1-(7-cyclopentylpyrazolo[1,5-a]pyrimidin-6-yl)-3-[6-[5-[4-[4-[2-(2,6-dioxo-3-piperidyl)-1-oxo-isoindolin-5-yl]piperazin-1-yl]butyl]-1,2,4-oxadiazol-3-yl]-5-fluoro-3-pyridyl]urea] it is 0.2 to 0.5 µM.
